The nature of data set [1]: Antiproliferative activity against human TS15-88 cells after 24 to 72 hrs by MTS assay. It is filed as functional, cell-based.
The species entered for data set [2] is Homo sapiens. Put plainly: Effect on SOX2 mRNA expression in human TS15-88 cells after 72 hrs by qRT-PCR analysis. It is filed as functional, cell-based.
A short description of data set [3]: Reduction of […] mRNA expression in human TS15-88 cells after 72 hrs by qRT-PCR analysis relative to control. It is filed as functional. On the set-up: scale not given: the % may be the effect or the level left.
Data set [4] is filed under the species Homo sapiens. Put plainly: Inhibition of neurosphere formation in human TS15-88 cells assessed as decrease in surface area of sphere at 50 uM after 5 days by microscopic analysis. The class given is functional, cell-based.
Data set [5] can be described thus: Cytotoxicity against HEK293 cells expressing human P2X7 receptor assessed as cell survival at 10 uM by MTT assay relative to control. It is filed as cell-based. To be noted: read-out: Survival.
For the next data set, the target named is T1, P2X purinoceptor 3 (Homo sapiens, UniProt P56373).
T1 sequence (P56373 whole entry): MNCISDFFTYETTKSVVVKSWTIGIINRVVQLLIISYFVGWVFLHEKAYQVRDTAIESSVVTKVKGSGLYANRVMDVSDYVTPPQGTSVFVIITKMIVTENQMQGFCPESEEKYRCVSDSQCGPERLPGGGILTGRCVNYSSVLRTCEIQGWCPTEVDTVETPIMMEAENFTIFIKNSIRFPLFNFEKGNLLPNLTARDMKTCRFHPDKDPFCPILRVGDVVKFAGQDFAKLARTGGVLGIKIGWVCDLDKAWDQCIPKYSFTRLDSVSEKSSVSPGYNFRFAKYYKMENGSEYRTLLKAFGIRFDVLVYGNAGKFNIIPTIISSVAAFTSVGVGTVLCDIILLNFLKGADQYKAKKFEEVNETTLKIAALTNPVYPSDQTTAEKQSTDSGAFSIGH
Put plainly: Antagonist activity at human P2X3 receptor expressed in 1321N1 cells assessed as inhibition of ATP-induced calcium flux measured for 30 secs at 0.4 secs intervals by Flou-4-AM dye based fluorescence assay. The class given is cell-based.

Data set [6] can be described thus: Inhibition of neurosphere formation in human TS15-88 cells assessed as decrease in sphere size at 50 uM after 5 days by microscopic analysis relative to control. To be noted: 120 h. It is filed as functional.
Data set [7] can be described thus: Drug level in zebrafish blood at 10 mg/kg, po administered via gavage measured 0.5 hrs post compound administration by LC-MS/MS analysis. It is filed as ADME, organism-based, Danio rerio. The conditions noted are these: read-out: Drug uptake.
The target of data set [8] is T2, P2X purinoceptor 4 (Homo sapiens) (UniProt Q99571).
T2 sequence (whole entry): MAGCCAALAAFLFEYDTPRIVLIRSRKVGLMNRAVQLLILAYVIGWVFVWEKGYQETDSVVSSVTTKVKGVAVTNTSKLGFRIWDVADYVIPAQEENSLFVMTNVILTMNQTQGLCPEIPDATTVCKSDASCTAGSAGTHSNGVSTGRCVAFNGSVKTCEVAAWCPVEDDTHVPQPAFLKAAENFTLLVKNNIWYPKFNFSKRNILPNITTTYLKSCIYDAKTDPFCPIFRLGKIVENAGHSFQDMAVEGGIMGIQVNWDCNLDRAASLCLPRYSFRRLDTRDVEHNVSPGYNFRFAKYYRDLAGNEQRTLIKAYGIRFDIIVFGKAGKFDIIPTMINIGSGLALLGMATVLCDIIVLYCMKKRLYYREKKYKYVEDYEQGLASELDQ
Put plainly: Antagonist activity at human P2X4 receptor expressed in 1321N1 cells assessed as inhibition of ATP-induced calcium flux at 1 uM measured for 30 secs at 0.4 secs intervals by Flou-4-AM dye based fluorescence assay relative to control. The class given is cell-based.

In data set [9] the target is T3, P2X purinoceptor 7 (Homo sapiens) (UniProt Q99572).
T3 sequence (whole entry): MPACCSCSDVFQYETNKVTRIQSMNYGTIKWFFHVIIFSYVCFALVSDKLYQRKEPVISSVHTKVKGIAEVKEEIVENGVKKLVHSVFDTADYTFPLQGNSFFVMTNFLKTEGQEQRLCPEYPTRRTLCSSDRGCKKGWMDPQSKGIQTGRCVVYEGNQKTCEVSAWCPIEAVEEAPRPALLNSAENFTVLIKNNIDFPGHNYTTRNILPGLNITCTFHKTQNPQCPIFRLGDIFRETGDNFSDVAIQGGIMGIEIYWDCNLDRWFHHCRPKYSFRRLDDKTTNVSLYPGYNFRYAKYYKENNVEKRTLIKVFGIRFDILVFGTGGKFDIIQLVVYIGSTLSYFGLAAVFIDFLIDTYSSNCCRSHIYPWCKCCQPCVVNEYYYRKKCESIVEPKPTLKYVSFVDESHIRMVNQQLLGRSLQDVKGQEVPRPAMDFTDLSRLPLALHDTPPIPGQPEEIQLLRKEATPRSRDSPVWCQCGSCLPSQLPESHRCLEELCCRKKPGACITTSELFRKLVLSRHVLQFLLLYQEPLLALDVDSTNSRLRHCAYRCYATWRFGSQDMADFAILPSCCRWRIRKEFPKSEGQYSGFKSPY
Put plainly: Antagonist activity at human P2X7 receptor expressed in HEK293 cells assessed as inhibition of BzATP-induced EtBr uptake at 10 uM after 2 hrs by fluorescence assay relative to control. The class given is cell-based.

For data set [10], the target named is T3, P2X purinoceptor 7 (Homo sapiens). Put plainly: Antagonist activity at human P2X7 receptor expressed in HEK293 cells assessed as inhibition of BzATP-induced EtBr uptake at 1 uM after 2 hrs by fluorescence assay relative to control. The class given is cell-based.
A short description of data set [11]: Ratio of drug level in zebrafish brain to blood at 10 mg/kg, po administered via gavage measured 0.5 hrs post compound administration by LC-MS/MS analysis. It is filed as ADME, organism-based, Danio rerio.
The next data set has as its target T4, P2X purinoceptor 7 (Homo sapiens, UniProt Q99572).
T4 sequence (Q99572 whole entry): T3 sequence (whole entry)
Put plainly: Antagonist activity at human P2X7 receptor expressed in HEK293 cells assessed as inhibition of BzATP-induced EtBr uptake after 2 hrs by fluorescence assay relative to control. It is filed as cell-based.

Data set [12] has as its target T5, P2X purinoceptor 2 (Homo sapiens) (UniProt Q9UBL9).
T5 sequence (whole entry): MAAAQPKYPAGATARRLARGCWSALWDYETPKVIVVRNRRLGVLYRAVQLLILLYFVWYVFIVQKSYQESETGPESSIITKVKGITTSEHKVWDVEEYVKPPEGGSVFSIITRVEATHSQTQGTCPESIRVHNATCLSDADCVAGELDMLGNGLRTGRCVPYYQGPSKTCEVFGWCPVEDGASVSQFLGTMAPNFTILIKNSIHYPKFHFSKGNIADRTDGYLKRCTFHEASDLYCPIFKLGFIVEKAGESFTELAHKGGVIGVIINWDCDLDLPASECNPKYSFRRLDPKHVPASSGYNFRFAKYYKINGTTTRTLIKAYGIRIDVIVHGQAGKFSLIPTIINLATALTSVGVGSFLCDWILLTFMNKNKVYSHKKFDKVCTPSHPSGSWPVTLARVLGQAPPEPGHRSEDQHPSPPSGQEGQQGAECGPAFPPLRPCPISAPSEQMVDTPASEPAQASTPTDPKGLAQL
Put plainly: Antagonist activity at human P2X2 receptor expressed in 1321N1 cells assessed as inhibition of ATP-induced calcium flux at 1 uM measured for 30 secs at 0.4 secs intervals by Flou-4-AM dye based fluorescence assay relative to control. The class given is cell-based.

For data set [13], the species on record is Homo sapiens. Put plainly: Antiproliferative activity against human TS15-88 cells at 50 uM after 24 hrs by MTS assay. It is filed as functional, cell-based.

Active and inactive are the calls of the source. No cut-off for these calls is given here.

As to `O=C(CC12CC3CC(CC(C3)C1)C2)Nc1cccc2nc(Cl)ccc12`, the values for the IC50 (in data set [1]; at P2X purinoceptor 3; at P2X purinoceptor 7) were 40 µM, “Not Active” and 0.004 µM, respectively. The outcome in the data set filed under Homo sapiens [2] was inactive. The molecule also showed an Activity in data set [3] of 41%. Besides, in the data set filed under Homo sapiens [4], the inhibition entry was “Active”. Moreover, the viability at 10 µM in data set [5] was 98%. The inhibition at 50 µM in data set [6] was above 50%. In addition, the concentration at 0.5 h in data set [7] amounted to 235 ng/mL. The inhibition in [8] came out at 4%; in [9] it was 97%; in [10] it was 89%; in data set [12], 7%. Moreover, the Kp at 0.5 h in data set [11] is 2.03. Moreover, the outcome in the data set filed under Homo sapiens [13] was Active.
